Measured values taken from patent US9579314B2 (priority 2015, dated 2017).

Tests used:
[1] = molecular target: Human M3 receptor (Homo sapiens, UniProt P20309); conditions: read-out: M3 binding affinity
[2] = molecular target: Human β2 adrenoceptor (Homo sapiens, UniProt P07550); conditions: read-out: B2 binding affinity
Sequence of Human β2 adrenoceptor (P07550 whole entry): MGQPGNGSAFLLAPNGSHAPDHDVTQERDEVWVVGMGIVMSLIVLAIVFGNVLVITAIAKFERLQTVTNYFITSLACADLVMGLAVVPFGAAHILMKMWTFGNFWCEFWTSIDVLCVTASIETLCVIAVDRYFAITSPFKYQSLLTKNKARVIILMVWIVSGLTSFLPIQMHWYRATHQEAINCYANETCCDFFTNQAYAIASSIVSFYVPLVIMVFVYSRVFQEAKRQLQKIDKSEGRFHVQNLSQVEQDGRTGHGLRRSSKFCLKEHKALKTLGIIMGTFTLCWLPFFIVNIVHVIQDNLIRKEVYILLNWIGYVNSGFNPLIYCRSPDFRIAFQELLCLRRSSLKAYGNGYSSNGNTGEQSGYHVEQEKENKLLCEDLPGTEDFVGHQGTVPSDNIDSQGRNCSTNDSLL

Sequence of Human M3 receptor (P20309 whole entry): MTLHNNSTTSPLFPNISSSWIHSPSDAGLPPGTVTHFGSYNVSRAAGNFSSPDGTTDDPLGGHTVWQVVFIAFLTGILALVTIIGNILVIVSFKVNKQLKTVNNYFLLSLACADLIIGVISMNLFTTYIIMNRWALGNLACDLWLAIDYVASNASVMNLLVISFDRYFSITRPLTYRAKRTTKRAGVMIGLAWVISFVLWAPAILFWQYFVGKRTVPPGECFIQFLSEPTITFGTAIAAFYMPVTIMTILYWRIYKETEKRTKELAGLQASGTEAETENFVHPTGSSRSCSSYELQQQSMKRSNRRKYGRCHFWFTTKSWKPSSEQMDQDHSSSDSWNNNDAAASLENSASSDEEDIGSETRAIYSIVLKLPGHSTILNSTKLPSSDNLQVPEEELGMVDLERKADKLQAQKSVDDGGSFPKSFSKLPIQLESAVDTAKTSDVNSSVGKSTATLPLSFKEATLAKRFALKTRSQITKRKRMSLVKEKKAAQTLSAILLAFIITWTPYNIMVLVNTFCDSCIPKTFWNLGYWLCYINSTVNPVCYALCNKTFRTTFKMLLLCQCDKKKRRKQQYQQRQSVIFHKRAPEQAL

Row | SMILES | IC50 [1] [nM] | IC50 [2] [nM]
1 | O=C(COc1cccc([C@](O)(C(=O)OCC2CCN(Cc3ccccc3)CC2)c2ccccc2)c1)N1CCN(C(=O)c2ccc(CNC[C@H](O)c3ccc(O)c4[nH]c(=O)ccc34)cc2)CC1 [Compound 58, (1-benzylpiperidin-4-yl)methyl (S)-2-hydroxy-2-(3-(2-(4-(4-((((R)-2-hydroxy-2-(8-hydroxy-2-oxo-1,2-dihydroquinolin-5-yl)ethyl)amino)methyl)benzoyl)piperazin-1-yl)-2-oxoethoxy)phenyl)-2-phenylacetate] | 0.3 to 3 | 0.3 to 3
2 | O=C(OCC1CCN(Cc2ccccc2)CC1)[C@](O)(c1ccccc1)c1cccc(OCCCCCCCCNCC(O)c2ccc(O)c3[nH]c(=O)ccc23)c1 (stereo in doubt) [Compound 30, (S)-(1-benzylpiperidin-4-yl)methyl 2-hydroxy-2-(3-((8-(((R)-2-hydroxy-2-(8-hydroxy-2-oxo-1,2-dihydroquinolin-5-yl)ethyl)amino)octyl)oxy)phenyl)-2-phenylacetate] | 0.3 to 3 | 0.3 to 3
3 | O=C(NC1CCN(C(=O)COc2cccc([C@](O)(C(=O)OCC3CCN(Cc4ccccc4)CC3)c3ccccc3)c2)CC1)c1ccc(CNC[C@H](O)c2ccc(O)c3[nH]c(=O)ccc23)cc1 [Compound 59, (1-benzylpiperidin-4-yl)methyl (S)-2-hydroxy-2-(3-(2-(4-(4-((((R)-2-hydroxy-2-(8-hydroxy-2-oxo-1,2-dihydroquinolin-5-yl)ethyl)amino)methyl)benzamido)piperidin-1-yl)-2-oxoethoxy)phenyl)-2-phenylacetate] | 0.3 to 3 | < 0.3
4 | CCOc1cc(C(=O)N[C@H]2C[C@H](NC(=O)COc3cccc([C@](O)(C(=O)OCC4CCN(Cc5ccccc5)CC4)c4ccccc4)c3)C2)ccc1CNC[C@H](O)c1ccc(O)c2[nH]c(=O)ccc12 [Compound 140, (1-benzylpiperidin-4-yl)methyl (S)-2-(3-(2-(((1R,3S)-3-(3-ethoxy-4-((((R)-2-hydroxy-2-(8-hydroxy-2-oxo-1,2-dihydroquinolin-5-yl)ethyl)amino)methyl)benzamido)cyclobutyl)amino)-2-oxoethoxy)phenyl)-2-hydroxy-2-phenylacetate] | 0.3 to 3 | 0.3 to 3
5 | O=C(COc1cccc([C@](O)(C(=O)OCC2CCN(Cc3ccccc3)CC2)c2ccccc2)c1)N[C@H]1C[C@H](NC(=O)c2ccc(CNC[C@H](O)c3ccc(O)c4[nH]c(=O)ccc34)c(O)c2)C1 [Compound 127, (1-Benzylpiperidin-4-yl)methyl (S)-2-hydroxy-2-(3-(2-(((1R,3S)-3-(3-hydroxy-4-((((R)-2-hydroxy-2-(8-hydroxy-2-oxo-1,2-dihydroquinolin-5-yl)ethyl)amino)methyl)-benzamido)cyclobutyl)amino)-2-oxoethoxy)phenyl)-2-phenylacetate] | < 0.3 | < 0.3
6 | CN1CCC(COC(=O)[C@@](O)(c2ccccc2)c2cccc(OCCCCCNC[C@H](O)c3ccc(O)c4[nH]c(=O)ccc34)c2)CC1 [Compound 24, (R)-(1-methylpiperidin-4-yl)methyl 2-hydroxy-2-(3-((5-(((R)-2-hydroxy-2-(8-hydroxy-2-oxo-1,2-dihydroquinolin-5-yl)ethyl)amino)pentyl)oxy)phenyl)-2-phenylacetate] | > 3 | < 0.3
7 | O=C(COc1cccc([C@](O)(C(=O)OCC2CCN(Cc3ccccc3)CC2)c2ccccc2)c1)NCCNC(=O)c1ccc(CNC[C@H](O)c2ccc(O)c3[nH]c(=O)ccc23)cc1 [Compound 57, (1-Benzylpiperidin-4-yl)methyl (S)-2-hydroxy-2-(3-(2-((2-(4-((((R)-2-hydroxy-2-(8-hydroxy-2-oxo-1,2-dihydroquinolin-5-yl)ethyl)amino)methyl)benzamido)ethyl)amino)-2-oxoethoxy)phenyl)-2-phenylacetate] | 0.3 to 3 | 0.3 to 3
8 | O=C(OCC1CCN(Cc2ccccc2)CC1)[C@](O)(c1ccccc1)c1cccc(OCCCCCNC[C@H](O)c2ccc(O)c3[nH]c(=O)ccc23)c1 [Compound 13, (S)-(1-Benzylpiperidin-4-yl)methyl 2-hydroxy-2-(3-((5-(((R)-2-hydroxy-2-(8-hydroxy-2-oxo-1,2-dihydroquinolin-5-yl)ethyl)amino)pentyl)oxy)phenyl)-2-phenylacetate] | < 0.3 | < 0.3
9 | O=C(COc1cccc([C@](O)(C(=O)OCC2CCN(Cc3ccccc3)CC2)c2ccccc2)c1)N[C@@H]1CCN(C(=O)c2ccc(CNC[C@H](O)c3ccc(O)c4[nH]c(=O)ccc34)cc2)C1 [Compound 68, (1-benzylpiperidin-4-yl)methyl (S)-2-hydroxy-2-(3-(2-(((R)-1-(4-((((R)-2-hydroxy-2-(8-hydroxy-2-oxo-1,2-dihydroquinolin-5-yl)ethyl)amino)methyl)benzoyl)pyrrolidin-3-yl)amino)-2-oxoethoxy)phenyl)-2-phenylacetate] | 0.3 to 3 | 0.3 to 3
10 | O=C(COc1cccc([C@](O)(C(=O)OCC2CCN(Cc3ccccc3)CC2)c2ccccc2)c1)N[C@H]1C[C@H](NC(=O)c2ccc(CNC[C@H](O)c3ccc(O)c4[nH]c(=O)ccc34)c(OC(F)(F)F)c2)C1 [Compound 141, (1-benzylpiperidin-4-yl)methyl (S)-2-hydroxy-2-(3-(2-(((1R,3S)-3-(4-((((R)-2-hydroxy-2-(8-hydroxy-2-oxo-1,2-dihydroquinolin-5-yl)ethyl)amino)methyl)-3-(trifluoromethoxy)benzamido)cyclobutyl)amino)-2-oxoethoxy)phenyl)-2-phenylacetate] | 0.3 to 3 | 0.3 to 3
11 | O=C(COc1cccc([C@](O)(C(=O)OCC2CCN(Cc3ccccc3)CC2)c2ccccc2)c1)N1CCOC2(CCN(C(=O)c3ccc(CCNC[C@H](O)c4ccc(O)c5[nH]c(=O)ccc45)cc3)CC2)C1 [Compound 100, (1-benzylpiperidin-4-yl)methyl (S)-2-hydroxy-2-(3-(2-(9-(4-(2-(((R)-2-hydroxy-2-(8-hydroxy-2-oxo-1,2-dihydroquinolin-5-yl)ethyl)amino)ethyl)benzoyl)-1-oxa-4,9-diazaspiro[5.5]undecan-4-yl)-2-oxoethoxy)phenyl)-2-phenylacetate] | < 0.3 | 0.3 to 3
12 | O=C(COc1cccc([C@](O)(C(=O)OCC2CCN(Cc3ccccc3)CC2)c2ccccc2)c1)NCCNC(=O)c1ccc(CCNC[C@H](O)c2ccc(O)c3[nH]c(=O)ccc23)cc1 [Compound 103, (1-benzylpiperidin-4-yl)methyl (S)-2-hydroxy-2-(3-(2-((2-(4-(2-(((R)-2-hydroxy-2-(8-hydroxy-2-oxo-1,2-dihydroquinolin-5-yl)ethyl)amino)ethyl)benzamido)ethyl)amino)-2-oxoethoxy)phenyl)-2-phenylacetate] | < 0.3 | 0.3 to 3
13 | COc1c(CNC[C@H](O)c2ccc(O)c3[nH]c(=O)ccc23)ccc(C(=O)NCCCOc2cccc([C@](O)(C(=O)OCC3CCN(Cc4ccccc4)CC3)c3ccccc3)c2)c1F [Compound 32F, (S)-(1-benzylpiperidin-4-yl)methyl 2-(3-(3-(2-fluoro-4-((((R)-2-hydroxy-2-(8-hydroxy-2-oxo-1,2-dihydroquinolin-5-yl)ethyl)amino)methyl)-3-methoxybenzamido)propoxy)phenyl)-2-hydroxy-2-phenylacetate] | 0.3 to 3 | < 0.3
14 | O=C(COc1cccc([C@](O)(C(=O)OCC2CCN(Cc3ccccc3)CC2)c2ccccc2)c1)N[C@@H]1CCN(C(=O)c2ccc(CCNC[C@H](O)c3ccc(O)c4[nH]c(=O)ccc34)cc2)C1 [Compound 104, (1-benzylpiperidin-4-yl)methyl (S)-2-hydroxy-2-(3-(2-(((R)-1-(4-(2-(((R)-2-hydroxy-2-(8-hydroxy-2-oxo-1,2-dihydroquinolin-5-yl)ethyl)amino)ethyl)benzoyl)pyrrolidin-3-yl)amino)-2-oxoethoxy)phenyl)-2-phenylacetate] | < 0.3 | 0.3 to 3
15 | O=C(OCC1CCN(Cc2ccccc2)CC1)C(O)(c1cccc(OCCCCCNC[C@H](O)c2ccc(O)c3[nH]c(=O)ccc23)c1)c1cccs1 (stereo partly drawn) [Compound 9, (1-benzylpiperidin-4-yl)methyl 2-hydroxy-2-(3-((5-(((R)-2-hydroxy-2-(8-hydroxy-2-oxo-1,2-dihydroquinolin-5-yl)ethyl)amino)pentyl)oxy)phenyl)-2-(thiophen-2-yl)acetate] | 0.3 to 3 | < 0.3
16 | O=C(c1ccc(CCNC[C@H](O)c2ccc(O)c3[nH]c(=O)ccc23)cc1)N1CCC2(CC1)CN(C(=O)c1ccc(COc3cccc([C@](O)(C(=O)OCC4CCN(Cc5ccccc5)CC4)c4ccccc4)c3)cc1)C2 [Compound 117, (1-benzylpiperidin-4-yl)methyl (S)-2-hydroxy-2-(3-((4-(7-(4-(2-(((R)-2-hydroxy-2-(8-hydroxy-2-oxo-1,2-dihydroquinolin-5-yl)ethyl)amino)ethyl)benzoyl)-2,7-diazaspiro[3.5]nonane-2-carbonyl)benzyl)oxy)phenyl)-2-phenylacetate] | 0.3 to 3 | < 0.3
17 | O=C(NC1CN(C(=O)COc2cccc([C@](O)(C(=O)OCC3CCN(Cc4ccccc4)CC3)c3ccccc3)c2)C1)c1ccc(CCNC[C@H](O)c2ccc(O)c3[nH]c(=O)ccc23)cc1 [Compound 102, (1-benzylpiperidin-4-yl)methyl (S)-2-hydroxy-2-(3-(2-(3-(4-(2-(((R)-2-hydroxy-2-(8-hydroxy-2-oxo-1,2-dihydroquinolin-5-yl)ethyl)amino)ethyl)benzamido)azetidin-1-yl)-2-oxoethoxy)phenyl)-2-phenylacetate] | < 0.3 | < 0.3
18 | O=C(COc1cccc([C@](O)(C(=O)OCC2CCN(Cc3ccccc3)CC2)c2ccccc2)c1)NC1CN(C(=O)c2ccc(CNC[C@H](O)c3ccc(O)c4[nH]c(=O)ccc34)cc2)C1 [Compound 66, (1-benzylpiperidin-4-yl)methyl (S)-2-hydroxy-2-(3-(2-((1-(4-((((R)-2-hydroxy-2-(8-hydroxy-2-oxo-1,2-dihydroquinolin-5-yl)ethyl)amino)methyl)benzoyl)azetidin-3-yl)amino)-2-oxoethoxy)phenyl)-2-phenylacetate] | 0.3 to 3 | < 0.3
